Assays:
[1] = physiological conditions; demetalation e.g. by apo-transferrin; cited from earlier work
[2] = Stability / storability of the ligands as labeling precursors; type: physicochemical
embryonated ostrich egg = assay: Administration in ostrich egg and PET/CT examination (in ovo test); details: in vivo in the incubated egg, approx. 10 MBq in PBS injected intravascularly
Experimental: The accumulation in the liver of the compounds according to the invention can be examined in a so-called ovo test, i.e. in vivo in an incubated ostrich egg. […] 2. Administration in Ostrich Egg and PET/CT Examination To carry out an intravascular injection in an embryonic egg, it is first necessary to find an […] blood vessel. This is done using a light-intensive […] lamp (Tempo No. 119, Brecker Ltd. & Co. KG, Ruethen, Germany or Powerlux […], Lyon Technologies Inc., Chula Vista, Calif., USA), with which the egg is illuminated through the eggshell in similar manner to a diaphanoscopy. After locating a large-caliber vessel, an approximately 2.5×5 cm rectangular piece is machined from the approximately 2 mm thick egg shell (Dremel® 3000, Dremel Europe-Bosch Powertools B.V., Breda, the Netherlands). Particular care must be taken to maintain the intactness of the inner membrane of the eggshell, which corresponds to the chorioallantoic membrane (CAM). After removing the eggshell lid-again using the […] lamp-the yolk vessel is punctured with a narrow 27G cannula and this is fixed to the eggshell with adhesive strips. The access thus created now allows both CT contrast media and radiopharmaceuticals to be injected via a short length of plastic tubing (Smiths MedicalTM 800/100/100 Smiths, Smiths Medical International Ltd, Ashford, Great Britain). […]

| Structure (SMILES) | stability of the 68Ga complex of the ligand [1] | stability of the ligand (storable as precursor for labeling with 68Ga or 64Cu) [2] | also measured |
| --- | --- | --- | --- |
| CCc1cccc(CC)c1NC(=O)CN(CC(=O)O)CC(=O)O [EHIDA] | do not form sufficiently stable ^68Ga complexes | – | – |
| CCOc1ccc(C[C@@H](CN(CCN(CC(=O)O)CC(=O)O)CC(=O)O)N(CC(=O)O)CC(=O)O)cc1 [EOB-DTPA] | do not form sufficiently stable ^68Ga complexes | – | – |
| CCOc1ccc(CNC2CN(Cc3ccc(OCC)cc3O)CCN(Cc3ccc(OCC)cc3O)C2)c(O)c1 [TEOHB-DAZA, tris-N,N′,N″(4-ethoxy-2-hydroxybenzyl)-1,4-diazepan-6-amine] | – | stable | – |
| COc1ccc(CNC2CN(Cc3ccc(OC)cc3O)CCN(Cc3ccc(OC)cc3O)C2)c(O)c1 [TMeOHB-DAZA, tris-N,N′,N″(4-methoxy-2-hydroxybenzyl)-1,4-diazepan-6-amine] | – | stable | – |
| CCOc1ccc(CNC2CN(Cc3ccc(OCC)cc3[O-])CCN(Cc3ccc(OCC)cc3[O-])C2)c([O-])c1.[68Ga+3] [^68Ga-[TEOHB-DAZA], ^68Ga[tris-N,N′,N″(4-ethoxy-2-hydroxybenzyl)-1,4-diazepan-6-amine]] | – | – | accumulation in the liver (embryonated ostrich egg): almost exclusive accumulation in the liver |
